The source of these data is patent US20260365646A1, “AKT1 MODULATORS” (Alterome Therapeutics, Inc., priority 2022, published 2026).

T1 sequence (P31749 whole entry E17K): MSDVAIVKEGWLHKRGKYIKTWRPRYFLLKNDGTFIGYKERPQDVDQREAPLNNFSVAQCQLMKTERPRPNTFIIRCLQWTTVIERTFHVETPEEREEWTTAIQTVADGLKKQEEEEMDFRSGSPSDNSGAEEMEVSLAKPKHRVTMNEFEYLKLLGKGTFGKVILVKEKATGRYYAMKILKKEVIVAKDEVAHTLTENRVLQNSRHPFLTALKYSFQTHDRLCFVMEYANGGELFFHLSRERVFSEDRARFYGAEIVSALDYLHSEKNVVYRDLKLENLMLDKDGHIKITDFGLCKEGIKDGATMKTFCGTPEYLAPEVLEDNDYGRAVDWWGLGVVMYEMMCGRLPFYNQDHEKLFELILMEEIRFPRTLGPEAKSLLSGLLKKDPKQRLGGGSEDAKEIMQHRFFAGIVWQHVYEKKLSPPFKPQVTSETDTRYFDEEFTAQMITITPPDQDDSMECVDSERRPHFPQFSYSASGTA

The first test addresses T1, full length AKT E17K (Homo sapiens, UniProt P31749, E17K).
T1 construct: host or cells: HEK-293 (ATCC CRL-1573)
The experiment in a line: NanoBRET Target Engagement (TE) Intracellular Kinase Assay.
Conditions: not given
The class given is cell-based. Summed up: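 Live-cell BRET assay: cells expressing NanoLuc-fused full-length AKT E17K incubated 2 h with tracer at target-optimized concentration plus compound. BRET read at 450 nm donor/600 nm acceptor with extracellular NanoLuc inhibitor. EC50 from sigmoidal variable-slope fit of tracer displacement.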
With `Nc1ncccc1-c1nc2ccc(-c3ccccc3)nc2n1-c1ccc(CNc2c(O)c(=O)c2=O)cc1` [Example 5, 3-((4-(2-(2-Aminopyridin-3-yl)-5-phenyl-3H-imidazo[4,5-b]pyridin-3-yl)benzyl)amino)-4-hydroxycyclobut-3-ene-1,2-dione], the half-maximal effective concentration (EC50) is > 600 nM.
The same measure, in the same setting: the result for `COc1c(N[C@H]2CCCN(Cc3ccc(-n4c(-c5cccnc5N)nc5ccc(-c6ccccc6)nc54)cc3)C2)c(=O)c1=O` [Example 29, (S)-3-((1-(4-(2-(2-Aminopyridin-3-yl)-5-phenyl-3H-imidazo[4,5-b]pyridin-3-yl)benzyl)piperidin-3-yl)amino)-4-methoxycyclobut-3-ene-1,2-dione] reads 60 to 600 nM; that for `COc1c(N2CCN(Cc3ccc(-n4c(-c5cccnc5N)nc5cccnc54)cc3)CC2)c(=O)c1=O` [Example 1, 3-(4-(4-(2-(2-Aminopyridin-3-yl)-3H-imidazo[4,5-b]pyridin-3-yl)benzyl)piperazin-1-yl)-4-methoxycyclobut-3-ene-1,2-dione], > 600 nM.
Still for that read-out and setting: the result for `COc1c(N2[C@@H](C)CN(Cc3ccc(-n4c(-c5cccnc5N)nc5ccc(-c6ccccc6)nc54)cc3)C[C@@H]2C)c(=O)c1=O` [Example 70, 3-((2S,6S)-4-(4-(2-(2-aminopyridin-3-yl)-5-phenyl-3H-imidazo[4,5-b]pyridin-3-yl)benzyl)-2,6-dimethylpiperazin-1-yl)-4-methoxycyclobut-3-ene-1,2-dione] reads 60 to 600 nM.
For `Nc1ncccc1-c1nc2ccc(-c3ccccc3)nc2n1-c1ccc(CN2CCC(N3CCCOc4c3c(=O)c4=O)CC2)cc1` [Example 84, 6-(1-(4-(2-(2-aminopyridin-3-yl)-5-phenyl-3H-imidazo[4,5-b]pyridin-3-yl)benzyl)piperidin-4-yl)-2-oxa-6-azabicyclo[5.2.0]non-1(7)-ene-8,9-dione], the EC50 was > 600 nM.
Still for that read-out and setting: the result for `COc1c(N2CCC(NCc3ccc(-n4c(-c5cccnc5N)nc5ccc(-c6ccccc6)nc54)cc3)CC2)c(=O)c1=O` [Example 77, 3-(4-((4-(2-(2-aminopyridin-3-yl)-5-phenyl-3H-imidazo[4,5-b]pyridin-3-yl)benzyl)amino)piperidin-1-yl)-4-methoxycyclobut-3-ene-1,2-dione] reads 15 to 60 nM; that for `COc1c(N2CCN(Cc3ccc(-n4c(-c5cccnc5N)nc5ccc(-c6ccccc6)nc54)cc3)C[C@H]2CO)c(=O)c1=O` [Example 80, (S)-3-(4-(4-(2-(2-aminopyridin-3-yl)-5-phenyl-3H-imidazo[4,5-b]pyridin-3-yl)benzyl)-2-(hydroxymethyl)piperazin-1-yl)-4-methoxycyclobut-3-ene-1,2-dione], 60 to 600 nM; that for `Nc1ncccc1-c1nc2ccc(-c3ccccc3)nc2n1-c1ccc(CNC(=O)c2cccc(Nc3c(O)c(=O)c3=O)c2)cc1` [Example 43, N-(4-(2-(2-Aminopyridin-3-yl)-5-phenyl-3H-imidazo[4,5-b]pyridin-3-yl)benzyl)-3-((2-hydroxy-3,4-dioxocyclobut-1-en-1-yl)amino)benzamide], > 600 nM.
Same read-out and setting: in the case of `CCSc1c(N(CC)C2CCN(Cc3ccc(-n4c(-c5cccnc5N)nc5ccc(-c6ccccc6)nc54)cc3)CC2)c(=O)c1=O` [Example 93, 3-((1-(4-(2-(2-aminopyridin-3-yl)-5-phenyl-3H-imidazo[4,5-b]pyridin-3-yl)benzyl)piperidin-4-yl)(ethyl)amino)-4-(ethylthio)cyclobut-3-ene-1,2-dione] it was 15 to 60 nM; in that of `COc1c(N2CCCC3(CN(Cc4ccc(-n5c(-c6cccnc6N)nc6ccc(-c7ccccc7)nc65)cc4)C3)C2)c(=O)c1=O` [Example 65, 3-(2-(4-(2-(2-aminopyridin-3-yl)-5-phenyl-3H-imidazo[4,5-b]pyridin-3-yl)benzyl)-2,6-diazaspiro[3.5]nonan-6-yl)-4-methoxycyclobut-3-ene-1,2-dione], 60 to 600 nM.
`CN(C)c1c(NC2CCN(Cc3ccc(-n4c(-c5cccnc5N)nc5ccc(-c6ccccc6)nc54)cc3)CC2)c(=O)c1=O` [Example 19, 3-((1-(4-(2-(2-Aminopyridin-3-yl)-5-phenyl-3H-imidazo[4,5-b]pyridin-3-yl)benzyl)piperidin-4-yl)amino)-4-(dimethylamino)cyclobut-3-ene-1,2-dione]: the EC50 is > 600 nM.
As to `COc1c(N2[C@H](C)CN(Cc3ccc(-n4c(-c5cccnc5N)nc5ccc(-c6ccccc6)nc54)cc3)C[C@@H]2C)c(=O)c1=O` [Example 68, 3-((2S,6R)-4-(4-(2-(2-aminopyridin-3-yl)-5-phenyl-3H-imidazo[4,5-b]pyridin-3-yl)benzyl)-2,6-dimethylpiperazin-1-yl)-4-methoxycyclobut-3-ene-1,2-dione], the EC50 lay in the range of 60 to 600 nM.
`COc1c(N2CCN(Cc3ccc(-n4c(-c5cccnc5N)nc5ccc(-c6ccccc6)nc54)cc3)C[C@@H]2C)c(=O)c1=O` [Example 36, (S)-3-(4-(4-(2-(2-Aminopyridin-3-yl)-5-phenyl-3H-imidazo[4,5-b]pyridin-3-yl)benzyl)-2-methylpiperazin-1-yl)-4-methoxycyclobut-3-ene-1,2-dione] showed an EC50 of 15 to 60 nM.
`COc1c(N2CCC3(CCN(Cc4ccc(-n5c(-c6cccnc6N)nc6ccc(-c7ccccc7)nc65)cc4)CC3)C2)c(=O)c1=O` [Example 54, 3-(8-(4-(2-(2-Aminopyridin-3-yl)-5-phenyl-3H-imidazo[4,5-b]pyridin-3-yl)benzyl)-2,8-diazaspiro[4.5]decan-2-yl)-4-methoxycyclobut-3-ene-1,2-dione] displayed an EC50 of 15 to 60 nM.
In turn, `CSc1c(N(C2CC2)C2CCN(Cc3ccc(-n4c(-c5cccnc5N)nc5ccc(-c6ccccc6)nc54)cc3)CC2)c(=O)c1=O` [Example 95, 3-((1-(4-(2-(2-aminopyridin-3-yl)-5-phenyl-3H-imidazo[4,5-b]pyridin-3-yl)benzy1)piperidin-4-yl)(cyclopropyl)amino)-4-(methylthio)cyclobut-3-ene-1,2-dione] returned an EC50 of 15 to 60 nM.
Turning to `COc1c(N2CCC3(CCN(Cc4ccc(-n5c(-c6cccnc6N)nc6ccc(-c7ccccc7)nc65)cc4)C3)CC2)c(=O)c1=O` [Example 57, 3-(2-(4-(2-(2-Aminopyridin-3-yl)-5-phenyl-3H-imidazo[4,5-b]pyridin-3-yl)benzyl)-2,8-diazaspiro[4.5]decan-8-yl)-4-methoxycyclobut-3-ene-1,2-dione], the EC50 is 15 to 60 nM.
For `Nc1ncccc1-c1nc2ccc(-c3ccccc3)nc2n1-c1ccc(CN2CCC(Nc3c(O)c(=O)c3=O)CC2)cc1` [Example 18, 3-((1-(4-(2-(2-Aminopyridin-3-yl)-5-phenyl-3H-imidazo[4,5-b]pyridin-3-yl)benzyl)piperidin-4-yl)amino)-4-hydroxycyclobut-3-ene-1,2-dione], the EC50 was > 600 nM.

The same test, now with this note: read-out: NanoBRET AKT1E17K EC50; HEK-293 cells transfected with NanoLuc-AKT E17K; competitive displacement of NanoBRET tracer; 2 hr equilibration; 10-point 3-fold dilution.
On to `COc1c(NC2CC3(CCN(Cc4ccc(-n5c(-c6cccnc6N)nc6ccc(-c7ccccc7)nc65)cc4)CC3)C2)c(=O)c1=O` [Example 35, 3-((7-(4-(2-(2-Aminopyridin-3-yl)-5-phenyl-3H-imidazo[4,5-b]pyridin-3-yl)benzyl)-7-azaspiro[3.5]nonan-2-yl)amino)-4-methoxycyclobut-3-ene-1,2-dione], for which the EC50 was < 15 nM.
Still for that read-out and setting: in the case of `COc1c(N2CCC(OCc3ccc(-n4c(-c5cccnc5N)nc5ccc(-c6ccccc6)nc54)cc3)CC2)c(=O)c1=O` [Example 78, 3-(4-((4-(2-(2-aminopyridin-3-yl)-5-phenyl-3H-imidazo[4,5-b]pyridin-3-yl)benzyl)oxy)piperidin-1-yl)-4-methoxycyclobut-3-ene-1,2-dione] it was < 15 nM; in that of `COc1c(NN2CCN(Cc3ccc(-n4c(-c5cccnc5N)nc5ccc(-c6ccccc6)nc54)cc3)CC2)c(=O)c1=O` [Example 83, 3-((4-(4-(2-(2-aminopyridin-3-yl)-5-phenyl-3H-imidazo[4,5-b]pyridin-3-yl)benzyl)piperazin-1-yl)amino)-4-methoxycyclobut-3-ene-1,2-dione], < 15 nM.
The same measure, in the same setting: the result for `CCN(c1c(SC)c(=O)c1=O)C1CCN(Cc2ccc(-n3c(-c4cccnc4N)nc4ccc(-c5ccccc5)nc43)cc2)CC1` [Example 92, 3-((1-(4-(2-(2-aminopyridin-3-yl)-5-phenyl-3H-imidazo[4,5-b]pyridin-3-yl)benzyl)piperidin-4-yl)(ethyl)amino)-4-(methylthio)cyclobut-3-ene-1,2-dione] reads < 15 nM; that for `CSc1c(N(C)C2CCN(Cc3ccc(-n4c(-c5cccnc5N)nc5ccc(-c6ccccc6)nc54)cc3)CC2)c(=O)c1=O` [Example 47, 3-((1-(4-(2-(2-aminopyridin-3-yl)-5-phenyl-3H-imidazo[4,5-b]pyridin-3-yl)benzyl)piperidin-4-yl)(methyl)amino)-4-(methylthio)cyclobut-3-ene-1,2-dione], < 15 nM.
As for `COc1c(N(C2CC2)C2CCN(Cc3ccc(-n4c(-c5cccnc5N)nc5ccc(-c6ccccc6)nc54)cc3)CC2)c(=O)c1=O` [Example 94, 3-((1-(4-(2-(2-aminopyridin-3-yl)-5-phenyl-3H-imidazo[4,5-b]pyridin-3-yl)benzyl)piperidin-4-yl)(cyclopropyl)amino)-4-methoxycyclobut-3-ene-1,2-dione], the EC50 was < 15 nM.
On the same count and under the same terms, the result for `COc1c(N2CCC3(CCN(Cc4ccc(-n5c(-c6cccnc6N)nc6ccc(-c7ccccc7)nc65)cc4)C3)C2)c(=O)c1=O` (stereo not shown) [Example 56, 3-(7-(4-(2-(2-Aminopyridin-3-yl)-5-phenyl-3H-imidazo[4,5-b]pyridin-3-yl)benzyl)-2,7-diazaspiro[4.4]nonan-2-yl)-4-methoxycyclobut-3-ene-1,2-dione] reads < 15 nM.
As to `CCOc1c(N2CC3(CN(Cc4ccc(-n5c(-c6cccnc6N)nc6ccc(-c7ccccc7)nc65)cc4)C3)C2)c(=O)c1=O` [Example 40, 3-(6-(4-(2-(2-Aminopyridin-3-yl)-5-phenyl-3H-imidazo[4,5-b]pyridin-3-yl)benzyl)-2,6-diazaspiro[3.3]heptan-2-yl)-4-ethoxycyclobut-3-ene-1,2-dione], the EC50 was < 15 nM.
